Measurements from patent US20040259766A1, “Use of glutamate, glutamate derivatives or metabolites, glutamate analogues or mixtures thereof for the manufacture of a composition for the treatment of osteoporosis” (priority 2004, published 2004).
Read-outs that look alike come from different tables or passages of the source. Marks after values point to notes of the source that are not given here. Residues, ends and D or L forms follow the SMILES beside them.

Tests used:
right femur = test: Bone mineral density (DEXA) of the right femur of piglets; format: in vivo, pig; conditions: right femur proximal and distal metaphysis, 21 and 35 days (FIG. 17, 18)
Experimental: (§7) Bone mineral density (BMD) was analysed by DEXA (Dual Energy X-ray Absorptiometry) using LUNAR apparatus.

ulna bone = conditions: group A, 0.8 g/kg body weight oral
Experimental: During general anesthetic surgery, the ulnar is broken and optionally denervated. On the first day after operation saline, AKG or Ala-Gln is administered orally at a dose of 0.8 g/kg body weight in 2 ml.
After the experimental period, the turkeys will be weighed and sacrified in order to measure bone mineral density (BMD).
as §7

humerus and femur [1] = test: Three point bending test (Instron 4302) of humerus and femur of piglets given Ala-Gln or AKG orally; format: in vivo, pig; conditions: piglets at 35 days of postnatal life; 0.4 g/kg b.w. oral once a day; mean ± SEM
Experimental: (§1) All piglets suckled sow milk before weaning. After weaning at the age of 28 days piglets were fed ad libitum with a standard mixture Premix prestarter (PP) (Food plant-Motycz, Poland) and free access to water was allowed. Piglets were allotted to three experimental trials:
(§2) 2—Second group, receiving 0.4 g/kg/b.w. of L-alanyl-L-glutamine (ala-gin), (2 ml solution/kg b.w.)
(§3) At the age of 35 days, piglets were sacrificed, eviscerated and bones were sampled.
(§4) Using Instron 4302 apparatus and applying three point bending test as presented in FIG. 1, the following properties of the bones were determined from curves showing the relation between load and deflection: […]

ribs [2] = test: Three point bending test (Instron 4302) of ribs of piglets given Ala-Gln or AKG orally; format: in vivo, pig
Experimental: as §1, §2, §3, §4

humerus and femur [3] = test: Architectural and geometric properties of humerus and femur of piglets; format: in vivo, pig; conditions: piglets at 35 days of postnatal life; 0.4 g/kg b.w. oral once a day; mean ± SEM
Experimental: as §1, §2, §3
(§5) Architectural and geometric properties of bone were estimated based on measurements of horizontal and vertical cross section as well as interior and exterior diameter of the bone.
(§6) Mean relative wall thickness (MRWT) expresses the ratio of wall to lumen measures and serves as an indicator in the process of architectural adaptation of bone to physiological stress during the growth of the body. When the lumen increases with unchanged wall thickness the MRWT decreases but bone resistance to strain increases.

[4] = Gain of bodyweight of piglets during postnatal life; format: in vivo, pig
Experimental: as §1, §2, §3

ribs [5] = test: Architectural and geometric properties of ribs of piglets; format: in vivo, pig; conditions: piglets at 35 days of postnatal life; 0.4 g/kg b.w. oral once a day; mean ± SEM
Experimental: as §1, §2, §3, §5, §6

femur = test: Femur bone mineral density in intact, shame operated and ovariectomized rats given AKG in drinking water; format: in vivo, Wistar rat; conditions: in all three groups (INT, SHO, OVX); 60 days of drinking water with AKG; p<0.01 in all groups
Text: 60 female Wistar rats at the age of 2 months and with an initial bodyweight of 200 g are used.
The rats are divided into three groups (n=20), where Group 1 is shame operated, Group 2 is ovariectomized and Group 3 is intact, i.e. not operated at all.
20 of the rats are shame-operated (SHO), where the ovaries are exteriorised and replaced intact.
The second group of ovariectomized rats (OVX) are submitted to ovariectomy from a dorsal approach.
Six months after ovariectomy, the animals from group 1 and 2, are divided into two additional sub-groups; one placebo and one experimental group.
After 60 days with placebo and experimental drinking water the rats are anaesthetised in CO2 and femur isolated for further analysis of bone mineral density.

[6] = piglets at 35 days of postnatal life, 0.4 g/kg b.w. oral once a day, mean ± SEM

## O=C(O)CCC(=O)C(=O)O [AKG, alpha-ketoglutaric acid]
Right femur
  Bone mineralization versus piglets receiving placebo: higher
Ulna bone; left wing control (intact), p<0.01
  BMD of the ulna bone, difference compared to saline treated turkeys: 25%
Ulna bone; right wing experimental (neurectomized, fracture of the ulnae), p<0.055
  BMD of the ulna bone, difference compared to saline treated turkeys: about 11%
Humerus and femur [1]
  Bone maximum elastic strength (Wy) femur: 1042.9 ± 73.66 N
  Bone maximum elastic strength (Wy) humerus: 726.0 ± 37.73 N
  Bone ultimate strength (Wf) femur: 1123.0 ± 75.09 N
  Bone ultimate strength (Wf) humerus: 857.6 ± 45.42 N
Ribs [2]; 35-days-old piglets, versus control, FIG. 11
  Yielding stress of the 5th rib: significant increase
Ribs [2]; [6]
  Bone maximum elastic strength (Wy) (ribs 4-9): 522.5 ± 17.97 N
  Moment of ultimate strength ribs (4-9): 737.445 ± 23.85 N
  Ultimate strength (Wf) (ribs 4-9): 585.1 ± 18.5 N
Humerus and femur [3]
  Cross-sectional area (A) femur: 64.7 ± 3.82* mm^2
  Cross-sectional area (A) humerus: 52.7 ± 4.1* mm^2
  Second moment of inertia (Ix) femur: 696.5 ± 48.7* mm^4
  Second moment of inertia (Ix) humerus: 459.4 ± 59.42* mm^4
[4]; p>0.01 in comparison to Ala-Gln as printed
  Bodyweight of the piglets versus control group and Ala-Gln group: more dramatic
Ribs [5]
  Cross sectional area (A) (ribs 4-9): 10.52 ± 0.35* mm^2
  MRWT (ribs 4-9): 0.60 ± 0.026
  Second moment of inertia (ribs 4-9): 15.42 ± 0.93* mm^4
femur
  BMD, difference between AKG treated rats and placebo treated rats: about 10%

## C[C@H](N)C(=O)N[C@@H](CCC(N)=O)C(=O)O [Ala-Gln, L-alanyl-L-glutamine, reference compound] (H-Ala-Gln-OH)
Humerus and femur [1]
  Bone maximum elastic strength (Wy) femur: 1016.8 ± 46.68 N
  Bone maximum elastic strength (Wy) humerus: 638.7 ± 9.91 N
  Bone ultimate strength (Wf) humerus: 743.0 ± 15.71∇ N
Humerus and femur [3]
  Mean relative wall thickness (MRWT) femur: 0.88 ± 0.12
  Mean relative wall thickness (MRWT) humerus: 0.64 ± 0.07
  Second moment of inertia (Ix) humerus: 368.4 ± 24.31* mm^4
[4]; day 14, 0.4 g/kg b.w. oral
  Bodyweight difference (control group less than Ala-Gln treated group): about 690 g
[4]; day three, 0.4 g/kg b.w. oral
  Bodyweight difference (control group less than Ala-Gln treated group): about 96 g
Ribs [5]
  MRWT (ribs 4-9): 0.70 ± 0.038
